In PubChem BioAssay AID248 (DTP/NCI, 2004):
“And” between values parts separate entries of the source, which are not always exact repeats. Equal values may be shown once. Toxic doses and inconclusive results are not listed.

System: L1210 leukemia ip in BDF1 mice, survival T/C
Test: NCI In Vivo Anticancer Drug Screen. Data for tumor model L1210 Leukemia (intraperitoneal) in B6D2F1 (BDF1) mice
Conditions: endpoint: mean survival time, higher = longer survival
In short: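 Mice bearing the transplanted tumor received compound or vehicle. Survival of the treated group was divided by that of the vehicle-treated control group to give the ratio.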

[1] = dose: 100.0 mg/kg/injection, schedule: Q01DX001 (ip), vehicle: saline
[2] = dose: 200.0 mg/kg/injection, schedule: Q01DX001 (ip), vehicle: saline
[3] = dose: 400.0 mg/kg/injection, schedule: Q01DX001 (ip), vehicle: saline
[4] = dose: 100.0 mg/kg/injection, schedule: Q04DX003 (ip), vehicle: Klucel (hydroxypropylcellulose) (HPC)
[5] = dose: 200.0 mg/kg/injection, schedule: Q04DX003 (ip), vehicle: Klucel (hydroxypropylcellulose) (HPC)
[6] = dose: 400.0 mg/kg/injection, schedule: Q04DX003 (ip), vehicle: Klucel (hydroxypropylcellulose) (HPC)
[7] = dose: 50.0 mg/kg/injection, schedule: Q01DX001 (ip), vehicle: carboxymethylcellulose (CMC)
[8] = dose: 100.0 mg/kg/injection, schedule: Q01DX001 (ip), vehicle: carboxymethylcellulose (CMC)
[9] = dose: 50.0 mg/kg/injection, schedule: Q01DX001 (ip), vehicle: saline
[10] = dose: 100.0 mg/kg/injection, schedule: Q01DX009 (ip), vehicle: Klucel (hydroxypropylcellulose) (HPC)
[11] = dose: 12.5 mg/kg/injection, schedule: Q01DX009 (ip), vehicle: Klucel (hydroxypropylcellulose) (HPC)
[12] = dose: 25.0 mg/kg/injection, schedule: Q01DX009 (ip), vehicle: Klucel (hydroxypropylcellulose) (HPC)
[13] = dose: 200.0 mg/kg/injection, schedule: Q01DX009 (ip), vehicle: Klucel (hydroxypropylcellulose) (HPC)
[14] = dose: 200.0 mg/kg/injection, schedule: Q01DX001 (ip), vehicle: carboxymethylcellulose (CMC)
[15] = dose: 400.0 mg/kg/injection, schedule: Q01DX001 (ip), vehicle: carboxymethylcellulose (CMC)
[16] = dose: 100.0 mg/kg/injection, schedule: Q04DX003 (ip), vehicle: saline
[17] = dose: 200.0 mg/kg/injection, schedule: Q04DX003 (ip), vehicle: saline

## CCOC(=O)CNC(=O)Nc1ccccc1F
dose: 50.0 mg/kg/injection, schedule: Q01DX009 (ip), vehicle: gum acacia
  T/C: 93 % of control and 97 % of control
dose: 100.0 mg/kg/injection, schedule: Q01DX001 (ip), vehicle: gum acacia
  T/C: 101 % of control and 102 % of control
dose: 100.0 mg/kg/injection, schedule: Q04DX002 (ip), vehicle: gum acacia
  T/C: 96 % of control and 97 % of control
dose: 100.0 mg/kg/injection, schedule: Q04DX003 (ip), vehicle: gum acacia
  T/C: 94 % of control and 108 % of control
dose: 200.0 mg/kg/injection, schedule: Q01DX001 (ip), vehicle: gum acacia
  T/C: 100 % of control and 102 % of control
dose: 200.0 mg/kg/injection, schedule: Q04DX002 (ip), vehicle: gum acacia
  T/C: 93 % of control and 94 % of control
dose: 200.0 mg/kg/injection, schedule: Q04DX003 (ip), vehicle: gum acacia
  T/C: 94 % of control and 101 % of control
dose: 400.0 mg/kg/injection, schedule: Q01DX001 (ip), vehicle: gum acacia
  T/C: 95 % of control and 105 % of control
dose: 400.0 mg/kg/injection, schedule: Q01DX009 (ip), vehicle: gum acacia
  T/C: 90 % of control and 91 % of control
dose: 400.0 mg/kg/injection, schedule: Q04DX002 (ip), vehicle: gum acacia
  T/C: 96 % of control and 87 % of control
dose: 400.0 mg/kg/injection, schedule: Q04DX003 (ip), vehicle: gum acacia
  T/C: 95 % of control and 96 % of control

## Cc1nc2ccccc2c(Br)c1Br
[1]
  T/C: 91 % of control
[2]
  T/C: 94 % of control
[3]
  T/C: 96 % of control

## O=C(C#Cc1ccccc1)Nc1ccccc1
[4]
  T/C: 114 % of control
[5]
  T/C: 97 % of control
[6]
  T/C: 98 % of control

## Oc1c(Cl)cc(Cl)c2cccnc12
dose: 12.5 mg/kg/injection, schedule: Q01DX009 (ip), vehicle: saline with Tween-80
  T/C: 92 % of control
dose: 25.0 mg/kg/injection, schedule: Q01DX009 (ip), vehicle: saline with Tween-80
  T/C: 90 % of control
[7]
  T/C: 98 % of control
dose: 50.0 mg/kg/injection, schedule: Q01DX009 (ip), vehicle: saline with Tween-80
  T/C: 92 % of control
[8]
  T/C: 91 % of control
dose: 100.0 mg/kg/injection, schedule: Q01DX009 (ip), vehicle: saline with Tween-80
  T/C: 94 % of control

## CN(C)c1ncnc2c1ncn2C1OC(CO)C(N)C1O (stereo unspecified)
dose: 6.25 mg/kg/injection, schedule: Q01DX009 (ip), vehicle: saline
  T/C: 111 % of control
dose: 12.5 mg/kg/injection, schedule: Q01DX009 (ip), vehicle: saline
  T/C: 111 % of control
dose: 25.0 mg/kg/injection, schedule: Q01DX009 (ip), vehicle: saline
  T/C: 117 % of control
[9]
  T/C: 109 % of control
[1]
  T/C: 109 % of control
[2]
  T/C: 109 % of control
[3]
  T/C: 115 % of control

## COc1cccc(NC(=O)Nc2cccc(Cl)c2)c1
[10]
  T/C: 94 % of control
dose: 400.0 mg/kg/injection, schedule: Q01DX009 (ip), vehicle: Klucel (hydroxypropylcellulose) (HPC)
  T/C: 95 % of control

## COC(=O)C1=C(c2ccncc2)c2cccc3cccc1c23
dose: 100.0 mg/kg/injection, schedule: Q04DX003 (ip), vehicle: alcohol
  T/C: 94 % of control
dose: 200.0 mg/kg/injection, schedule: Q04DX003 (ip), vehicle: alcohol
  T/C: 102 % of control

## Cc1ccc(Sc2cccc3c2C(=O)c2c(Sc4ccc(C)cc4)cccc2C3=O)cc1
dose: 100.0 mg/kg/injection, schedule: Q04DX003 (ip), vehicle: saline with Tween-80
  T/C: 86 % of control
dose: 200.0 mg/kg/injection, schedule: Q04DX003 (ip), vehicle: saline with Tween-80
  T/C: 91 % of control
dose: 400.0 mg/kg/injection, schedule: Q04DX003 (ip), vehicle: saline with Tween-80
  T/C: 88 % of control

## CC(C)(C)N1CC(C(O)c2ccccc2)C1c1ccccc1 (stereo unspecified)
[4]
  T/C: 98 % of control
[5]
  T/C: 95 % of control

## Cc1cc(C)nc(NS(=O)(=O)c2ccc(N=Nc3nc4[nH]c(N)nc(=S)c4[nH]3)cc2)n1
dose: 6.25 mg/kg/injection, schedule: Q01DX009 (ip), vehicle: Klucel (hydroxypropylcellulose) (HPC)
  T/C: 151 % of control and 177 % of control
[11]
  T/C: 153 % of control
[12]
  T/C: 112 % of control
[13]
  T/C: 102 % of control

## COc1cc(/C=N/NC(=O)c2cccc([N+](=O)[O-])c2)ccc1O
[8]
  T/C: 98 % of control
dose: 100.0 mg/kg/injection, schedule: Q01DX009 (ip), vehicle: carboxymethylcellulose (CMC)
  T/C: 97 % of control and 107 % of control
dose: 100.0 mg/kg/injection, schedule: Q04DX002 (ip), vehicle: carboxymethylcellulose (CMC)
  T/C: 101 % of control and 108 % of control
[14]
  T/C: 96 % of control
dose: 200.0 mg/kg/injection, schedule: Q01DX009 (ip), vehicle: carboxymethylcellulose (CMC)
  T/C: 93 % of control and 103 % of control
dose: 200.0 mg/kg/injection, schedule: Q04DX002 (ip), vehicle: carboxymethylcellulose (CMC)
  T/C: 101 % of control and 104 % of control
[15]
  T/C: 91 % of control
dose: 400.0 mg/kg/injection, schedule: Q01DX009 (ip), vehicle: carboxymethylcellulose (CMC)
  T/C: 97 % of control and 100 % of control
dose: 400.0 mg/kg/injection, schedule: Q04DX002 (ip), vehicle: carboxymethylcellulose (CMC)
  T/C: 104 % of control and 105 % of control

## CCOc1cc(N)ccc1C
[10]
  T/C: 97 % of control
[4]
  T/C: 108 % of control
[13]
  T/C: 99 % of control
[5]
  T/C: 97 % of control
[6]
  T/C: 101 % of control

## Oc1ccc(Cl)cc1/C=N/Nc1nnc(N/N=C/c2cc(Cl)ccc2O)c2ccccc12
[7]
  T/C: 90 % of control
[8]
  T/C: 93 % of control
[14]
  T/C: 95 % of control
[15]
  T/C: 95 % of control

## CC(=O)NC(C)(C)CC(C)(C)C
[11]
  T/C: 99 % of control
dose: 12.5 mg/kg/injection, schedule: Q04DX003 (ip), vehicle: Klucel (hydroxypropylcellulose) (HPC)
  T/C: 98 % of control
dose: 25.0 mg/kg/injection, schedule: Q01DX001 (ip), vehicle: saline with Tween-80
  T/C: 98 % of control
[12]
  T/C: 101 % of control
dose: 25.0 mg/kg/injection, schedule: Q04DX003 (ip), vehicle: Klucel (hydroxypropylcellulose) (HPC)
  T/C: 96 % of control
dose: 50.0 mg/kg/injection, schedule: Q01DX001 (ip), vehicle: saline with Tween-80
  T/C: 103 % of control
dose: 50.0 mg/kg/injection, schedule: Q04DX003 (ip), vehicle: Klucel (hydroxypropylcellulose) (HPC)
  T/C: 93 % of control
dose: 100.0 mg/kg/injection, schedule: Q01DX001 (ip), vehicle: saline with Tween-80
  T/C: 105 % of control and 119 % of control

## O=C1c2ccccc2C(=O)N1OCc1ccc(CON2C(=O)c3ccccc3C2=O)cc1
[16]
  T/C: 101 % of control
[17]
  T/C: 95 % of control
dose: 400.0 mg/kg/injection, schedule: Q04DX003 (ip), vehicle: saline
  T/C: 95 % of control

## ClC1(c2ccccc2)c2ccccc2C(Cl)(c2ccccc2)c2ccccc21 (stereo unspecified)
dose: 100.0 mg/kg/injection, schedule: Q04DX002 (ip), vehicle: saline with Tween-80
  T/C: 98 % of control
dose: 200.0 mg/kg/injection, schedule: Q04DX002 (ip), vehicle: saline with Tween-80
  T/C: 92 % of control
dose: 400.0 mg/kg/injection, schedule: Q04DX002 (ip), vehicle: saline with Tween-80
  T/C: 92 % of control

## COc1ccc2c(c1)CCC1C2CCC2(C)C(=O)C(n3cnc4c(=S)nc[nH]c43)CC12 (stereo unspecified)
dose: 100.0 mg/kg/injection, schedule: Q01DX001 (sc), vehicle: steriod suspending solution
  T/C: 106 % of control
dose: 200.0 mg/kg/injection, schedule: Q01DX001 (sc), vehicle: steriod suspending solution
  T/C: 110 % of control
dose: 400.0 mg/kg/injection, schedule: Q01DX001 (sc), vehicle: steriod suspending solution
  T/C: 110 % of control

## C[N+](C)(C)CC#N
[16]
  T/C: 95 % of control
[17]
  T/C: 95 % of control

## O=c1oc2c(CN3CCOCC3)c(O)ccc2c2c1CCCC2
[8]
  T/C: 86 % of control
[14]
  T/C: 96 % of control
[15]
  T/C: 91 % of control

## O=C(NCCCl)Nc1ccccc1
dose: 100.0 mg/kg/injection, schedule: Q01DX001 (ip), vehicle: Klucel (hydroxypropylcellulose) (HPC)
  T/C: 93 % of control
[4]
  T/C: 122 % of control
dose: 200.0 mg/kg/injection, schedule: Q01DX001 (ip), vehicle: Klucel (hydroxypropylcellulose) (HPC)
  T/C: 101 % of control
[5]
  T/C: 104 % of control

## OC1Cn2cc(Br)c[n+]2C1 (stereo unspecified)
[9]
  T/C: 94 % of control
[1]
  T/C: 116 % of control
[2]
  T/C: 102 % of control
[3]
  T/C: 96 % of control
